Numbering of substitutions follows the chain as printed.

These results are taken from paper PMC9508125, “The evolutionary advantage of an aromatic clamp in plant family 3 glycoside exo-hydrolases” (Nature Communications, 2022).

Common to all, as to assay: Relative rates of hydrolysis of poly-, oligosaccharides and aryl-glycosides
What all share (type): biochemical
Settings in all cases: substance is the substrate, nd = activity not detected

One experiment concerns the target T1, HvExoI W434Y mutant (Hordeum vulgare, UniProt Q9XEI3, W459Y).
T1 sequence (Q9XEI3 26-630 W459Y): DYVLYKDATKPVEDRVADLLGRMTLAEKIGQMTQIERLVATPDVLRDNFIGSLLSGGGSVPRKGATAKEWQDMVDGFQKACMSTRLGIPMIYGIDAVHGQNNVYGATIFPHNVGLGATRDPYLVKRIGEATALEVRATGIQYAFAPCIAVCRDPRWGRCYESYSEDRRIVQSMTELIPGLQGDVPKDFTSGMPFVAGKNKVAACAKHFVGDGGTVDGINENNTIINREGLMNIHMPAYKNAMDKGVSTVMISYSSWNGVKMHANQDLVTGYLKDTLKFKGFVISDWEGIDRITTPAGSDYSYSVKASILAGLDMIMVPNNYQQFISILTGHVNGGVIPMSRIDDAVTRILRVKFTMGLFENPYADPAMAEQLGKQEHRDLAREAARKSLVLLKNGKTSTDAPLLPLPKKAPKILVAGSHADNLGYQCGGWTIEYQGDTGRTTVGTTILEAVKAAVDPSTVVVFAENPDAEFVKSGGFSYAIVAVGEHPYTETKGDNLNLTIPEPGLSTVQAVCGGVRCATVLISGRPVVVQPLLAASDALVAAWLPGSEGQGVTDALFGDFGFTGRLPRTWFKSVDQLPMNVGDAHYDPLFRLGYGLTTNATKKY
An outline of the steps:
(§1)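 First, pH dependence was tested in McIlvaine buffers at pH 3.5–8.5 and 30 °C. Next, temperature dependence was tested in 100 mM sodium acetate, pH 5.25, at 0–80 °C for 15 min, with both scans on 0.2% (w/v) 4NP-Glc. Relative substrate rates then used 50 pmoles of enzyme.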

In experiment [1] the target is T2, HvExoI W286F/W434F mutant (Hordeum vulgare, UniProt Q9XEI3, W311F/W459F).
T2 sequence (Q9XEI3 26-630 W311F/W459F): T1 sequence (Q9XEI3 26-630 W459Y) with W286F, Y434F
An outline of the steps:
as §1

Experiment [2] concerns the target T3, HvExoI W286F/W434A mutant (Hordeum vulgare, UniProt Q9XEI3, W311F/W459A).
T3 sequence (Q9XEI3 26-630 W311F/W459A): T1 sequence (Q9XEI3 26-630 W459Y) with W286F, Y434A
Summed up: as §1

For a further experiment, the target named is T4, HvExoI W434A mutant (Hordeum vulgare, UniProt Q9XEI3, W459A).
T4 sequence (Q9XEI3 26-630 W459A): T1 sequence (Q9XEI3 26-630 W459Y) with Y434A
An outline of the steps: as §1

With Cellobiose, the “Activity (relative rate of hydrolysis)” value turned out to be 0.1 ± 0.001 μmole/min per mg protein at HvExoI W434Y mutant, 0.01 ± 0.001 μmole/min per mg protein in experiment [1] and 0.01 ± 0.001 μmole/min per mg protein in experiment [2].

As for `OC[C@H]1O[C@@H](O[C@H]2[C@H](O)[C@@H](O)[C@H](O[C@H]3[C@H](O)[C@@H](O)[C@H](O[C@H]4[C@H](O)[C@@H](O)[C@H](O[C@H]5[C@H](O)[C@@H](O)[C@H](O[C@H]6[C@H](O)[C@@H](O)C(O)O[C@@H]6CO)O[C@@H]5CO)O[C@@H]4CO)O[C@@H]3CO)O[C@@H]2CO)[C@H](O)[C@@H](O)[C@@H]1O` (stereo partly shown) [Cellohexaose], the “Activity (relative rate of hydrolysis)” value on HvExoI W434Y mutant amounted to 0.1 ± 0.01 μmole/min per mg protein; in experiment [1] it was 0.01 ± 0.001 μmole/min per mg protein; in experiment [2], 0.01 ± 0.0002 μmole/min per mg protein.

`O=[N+]([O-])c1ccc(O[C@@H]2O[C@H](CO)[C@@H](O)[C@H](O)[C@H]2O)cc1` [4NP-Glc, 4-nitrophenyl β-D-glucopyranoside]: the “Activity (relative rate of hydrolysis)” value was 1.2 ± 0.1 μmole/min per mg protein at HvExoI W434Y mutant, 6.1 ± 0.1 μmole/min per mg protein on HvExoI W434A mutant, 0.5 ± 0.02 μmole/min per mg protein in experiment [1] and 1.8 ± 0.03 μmole/min per mg protein in experiment [2].

Consider `OC[C@H]1O[C@@H](O[C@H]2[C@H](O)[C@@H](O)[C@H](O[C@H]3[C@H](O)[C@@H](O)C(O)O[C@@H]3CO)O[C@@H]2CO)[C@H](O)[C@@H](O)[C@@H]1O` (stereo partly shown) [Cellotriose], for which the entries for the “Activity (relative rate of hydrolysis)” value (at HvExoI W434Y mutant; in experiment [1]; in experiment [2]) were 0.1 ± 0.02 μmole/min per mg protein, 0.02 ± 0.002 μmole/min per mg protein and 0.01 ± 0.001 μmole/min per mg protein, respectively.

On to `OC[C@H]1O[C@@H](O[C@H]2C(O)O[C@H](CO)[C@@H](O)[C@@H]2O)[C@H](O)[C@@H](O)[C@@H]1O` (stereo partly shown) [Sophorose], for which the “Activity (relative rate of hydrolysis)” value on HvExoI W434Y mutant is reported as 0.8 ± 0.1 μmole/min per mg protein; in experiment [1] it was 0.3 ± 0.03 μmole/min per mg protein; in experiment [2] it was 0.02 ± 0.001 μmole/min per mg protein.

`OC[C@H]1O[C@@H](O[C@H]2[C@H](O)[C@@H](O)[C@H](O[C@H]3[C@H](O)[C@@H](O)[C@H](O[C@H]4[C@H](O)[C@@H](O)[C@H](O[C@H]5[C@H](O)[C@@H](O)C(O)O[C@@H]5CO)O[C@@H]4CO)O[C@@H]3CO)O[C@@H]2CO)[C@H](O)[C@@H](O)[C@@H]1O` (stereo partly shown) [Cellopentaose]: the “Activity (relative rate of hydrolysis)” value at HvExoI W434Y mutant came out at 0.1 ± 0.002 μmole/min per mg protein; in experiment [1], 0.02 ± 0.001 μmole/min per mg protein; in experiment [2], 0.01 ± 0.0003 μmole/min per mg protein.

Consider `OC[C@H]1O[C@@H](O[C@@H]2[C@@H](O)[C@H](O[C@@H]3[C@@H](O)[C@H](O[C@H]4[C@H](O)[C@@H](CO)OC(O)[C@@H]4O)O[C@H](CO)[C@H]3O)O[C@H](CO)[C@H]2O)[C@H](O)[C@@H](O)[C@@H]1O` (stereo partly shown) [Laminaritetraose], for which the “Activity (relative rate of hydrolysis)” value at HvExoI W434Y mutant is listed as 1.3 ± 0.1 μmole/min per mg protein; at HvExoI W434A mutant, 1.1 ± 0.1 μmole/min per mg protein; in experiment [1], 0.4 ± 0.04 μmole/min per mg protein; in experiment [2], 0.2 ± 0.01 μmole/min per mg protein.

Take `OC[C@H]1O[C@@H](O[C@@H]2[C@@H](O)[C@H](O[C@@H]3[C@@H](O)[C@H](O[C@@H]4[C@@H](O)[C@H](O[C@@H]5[C@@H](O)[C@H](O[C@H]6[C@H](O)[C@@H](CO)OC(O)[C@@H]6O)O[C@H](CO)[C@H]5O)O[C@H](CO)[C@H]4O)O[C@H](CO)[C@H]3O)O[C@H](CO)[C@H]2O)[C@H](O)[C@@H](O)[C@@H]1O` (stereo partly shown) [Laminarihexaose]: the “Activity (relative rate of hydrolysis)” value came out at 1.4 ± 0.1 μmole/min per mg protein at HvExoI W434Y mutant, 1.0 ± 0.02 μmole/min per mg protein on HvExoI W434A mutant, 0.5 ± 0.1 μmole/min per mg protein in experiment [1] and 0.1 ± 0.004 μmole/min per mg protein in experiment [2].

As for Gentiobiose, the “Activity (relative rate of hydrolysis)” value is 0.1 ± 0.01 μmole/min per mg protein on HvExoI W434Y mutant, 0.01 ± 0.001 μmole/min per mg protein in experiment [1] and 0.002 ± 0.0002 μmole/min per mg protein in experiment [2].

Take `OC[C@H]1O[C@@H](O[C@@H]2[C@@H](O)[C@H](O[C@@H]3[C@@H](O)[C@H](O[C@@H]4[C@@H](O)[C@H](O[C@@H]5[C@@H](O)[C@H](O)O[C@H](CO)[C@H]5O)O[C@H](CO)[C@H]4O)O[C@H](CO)[C@H]3O)O[C@H](CO)[C@H]2O)[C@H](O)[C@@H](O)[C@@H]1O` [Laminaripentaose]: the “Activity (relative rate of hydrolysis)” value at HvExoI W434Y mutant is 1.5 ± 0.1 μmole/min per mg protein; at HvExoI W434A mutant it was 1.0 ± 0.1 μmole/min per mg protein; in experiment [1], 0.4 ± 0.04 μmole/min per mg protein; in experiment [2] it was 0.2 ± 0.02 μmole/min per mg protein.

For `OC[C@H]1O[C@@H](O[C@H]2[C@H](O)[C@@H](O)[C@H](O[C@H]3[C@H](O)[C@@H](O)[C@H](O[C@H]4[C@H](O)[C@@H](O)C(O)O[C@@H]4CO)O[C@@H]3CO)O[C@@H]2CO)[C@H](O)[C@@H](O)[C@@H]1O` (stereo partly shown) [Cellotetraose], the results for the “Activity (relative rate of hydrolysis)” value (on HvExoI W434Y mutant; in experiment [1]; in experiment [2]) were 0.1 ± 0.01 μmole/min per mg protein, 0.02 ± 0.001 μmole/min per mg protein and 0.1 ± 0.01 μmole/min per mg protein, respectively.
